Reference: patent US7067528B2, “1, 2-dihydro-2-oxo-1, 8-naphthyridine derivative” (Sumitomo Pharmaceuticals Co., Ltd., priority 2001, dated 2006)
Structures can show the parent of a compound that is named as a salt.

Assay: Stability Test: storage at 60° C., 75% R.H., residual amount of the compound by HPLC
Type: physicochemical
Protocol: The crystals of N-[1-butyl-4-[3-[3-(hydroxy)propoxy]-phenyl]-1,2-dihydro-2-oxo-1,8-naphthyridin-3-yl]-N′-(2,6-diisopropyl-4-aminophenyl)urea hydrochloride monohydrate obtained in Example 1 and amorphous N-[1-butyl-4-[3-[3-(hydroxy)propoxy]phenyl]-1,2-dihydro-2-oxo-1,8-naphthyridin-3-yl]-N′-(2,6-diisopropyl-4-aminophenyl)urea hydrochloride were stored at a temperature of 60° C. under a relative humidity (R.H.) of 75% for 4 weeks. Then, the residual amount of the compound therein was quantitatively analyzed using High Performance Liquid Chromatography (HPLC).

Row | HPLC Area Percentage (%) (Initial value, before storage at 60° C. / 75% R.H.) | HPLC Area Percentage (%) (storage period 2 weeks at 60° C., relative humidity 75%) | HPLC Area Percentage (%) (storage period 4 weeks at 60° C., relative humidity 75%) | stability compared with the amorphous hydrochloride (60° C., 75% R.H., 4 weeks, conclusion in words from Table 2) | SMILES
1 | 97.7% | 94.6% | 92.7% |  | CCCCn1c(=O)c(NC(=O)Nc2c(C(C)C)cc(N)cc2C(C)C)c(-c2cccc(OCCCO)c2)c2cccnc21.Cl [Amorphous, N-[1-butyl-4-[3-[3-(hydroxy)propoxy]phenyl]-1,2-dihydro-2-oxo-1,8-naphthyridin-3-yl]-N′-(2,6-diisopropyl-4-aminophenyl)urea hydrochloride]
2 |  |  |  | quite excellent in stability | CCCCn1c(=O)c(NC(=O)Nc2c(C(C)C)cc(N)cc2C(C)C)c(-c2cccc(OCCCO)c2)c2cccnc21 [Example 1, N-[1-butyl-4-[3-[3-(hydroxy)propoxy]phenyl]-1,2-dihydro-2-oxo-1,8-naphthyridin-3-yl]-N′-(2,6-diisopropyl-4-amino-phenyl)urea hydrochloride monohydrate]
